Read-outs that look alike come from different tables or passages of the source.
Experiments:
Tlp3 [1] = type: cell-based, C. jejuni 11168-O
Procedure: (§1) The biological relevance of the binding specificities of the Tlp2,3,4 cluster was assessed by examining chemotactic responses of C. jejuni 11168-O tlp2, tlp3, and tlp4 wild-type (WT) and mutant strains using a nutrient-depleted chemotaxis assay. All ligands, with the exception of lysine and cysteine, interacted with Tlp2 and Tlp4 as attractants (Table 1), showing an ~1- to ~2-log decrease (P < 0.05) in migration toward the ligand compared to the WT strain.
(§2) Chemotaxis assays—the nutrient-depleted chemotaxis assay and the modified hard agar plug assay (tHAP)—were performed as previously described ([11], [34]). The chemotactic responses of all isogenic strains were compared to that of the C. jejuni 11168-O wild-type strain to distinguish between chemoattractants and chemorepellents. For the nutrient-depleted chemotaxis and modified hard agar plug (tHAP) assays, all differences were calculated as changes on a log10 scale. Controls were provided by using nonmotile (C. jejuni 81116 flaAB) and nonchemotactic (C. jejuni NCTC 11168 cheY) mutants ([69]) and mucin as negative and positive controls ([10]).

Tlp4 [2] = type: cell-based, C. jejuni 11168-O; details: nutrient-depleted chemotaxis assay
Procedure: as §1, §2

Tlp2 [3] = type: cell-based, C. jejuni 11168-O; details: nutrient-depleted chemotaxis assay
Procedure: as §1, §2

Tlp2 [4] = target: T1, Tlp2 (Campylobacter jejuni, UniProt Q0PBZ3); type: binding; details: yes/no binding
Procedure: (§3) Glycan (>400 monosaccharides or complex glycans) and small molecule arrays containing amino acids and salts were performed as described previously by Day et al. ([67]). Briefly, 1 μg of purified recombinant protein was complexed with anti-His antibody (Cell Signaling Technology) and rabbit anti-mouse/goat anti-rabbit Alexa 555-IgG (Thermo Scientific) at a molar ratio of 1:0.5:0.25 and then incubated on the array for […] in phosphate-buffered saline (PBS). The array slides were scanned at 488/520 nm and analyzed using InnoScan 1100 with MAPIX software. All arrays were performed in triplicate with a total of 12 data points for each glycan tested; the complete data set and MIRAGE (i.e., minimum information regarding a glycomics experiment) results are shown in Tables S3 and S8.
(§4) Table S8 - Supplementary glycan microarray document based on M IRAGE guidelines. D O I:
(§5) Classification Guidelines
(§6) 1. Sample: Glycan Binding Sample
(§7) Origin: Helicobacter pylori SS1; produced as a recombinant His - tagged protein in E.
(§8) The preparation of Tlp2,3, and 4 is explained in the Materials and Methods section:
(§9) Expression and purification of the periplasmic domain of Tlp2,3, and 4.
(§10) Sample Sample is a His Tagged protein containing only the periplasmic receptor domain of the modifications full length Tlp2,3, and 4transmembrane protein.
(§11) Please see Materials and Methods: Tlps 2/3/4 bind to a range of ligands, including […]
(§12) Proteins were complexed with mouse anti- his antibody, with secondary and tertiary AlexaFluor555 antibodies (rabbit anti-mouse, goat anti-rabbit) at a molar ratio of 4:2:1.
(§13) The protein/antibody complex was incubated on ice for 10 mins prior to placing on the Assay protocol array. Arrays were performed with 1 µg of complexed protein incubated on the array for 20 min. Arrays were then washed 3 times in Array PBS (PBS + 2mM MgCl2 + 2mM CaCl2) then dried by centrifugation for 3 min at 300 x g . Scanning was performed us ing an Innopsys InnoScan 1100AL and analyzed using Mapix (Innopsys). Yes/no binding was determined by six positive replicate spots in three replicate experiments. Positive […]
(§14) Glycan Glycans in this study are listed in Table S2 and is a published library in doi:
(§15) Glycans were prepared in one of two ways for printing:
(§16) Glycan 1. Glycans (with IDs in number/letter format; e.g. 1A, 4C, 7K) were sourced modifications commercially from Dextra Laboratories, Elicityl and Carbosythn and were made into glycoamines using the protocol published in Day et al 2009 (doi:
(§17) Glycan arrays: We only use glycan arrays as a yes/no binding tool. Due to this we look only at binding that is unambiguously above background vs lack of binding above background. Average background + 3x standard deviation of the background of 20 sets of 4 spots of DMF:DMSO only spots is applied to determine if binding observed is […]
(§18) Only spots with values equal to or greater than this value were considered as binding from data of any tested slide. These values are slide […]
(§19) Data Small molecule arrays: We only use amino acid arrays as a yes/no binding tool. Due interpretation to this we look only at binding that is unambiguously above background vs lack of binding above background. Average background + 3x standard deviation of the background of 6 spots of PBS + 2% glycerol only spots is applied to determine if […]
(§20) Only spots with values equal to or greater than this value were considered as binding from data of any tested slide. These values are slide dependent. […]

Tlp4 [5] = target: T2, Tlp4 (Campylobacter jejuni, UniProt Q0PBP3); type: binding; details: yes/no binding
Procedure: as §3, §4, §5, §6, §7, §8, §9, §10, §11, §12, §13, §14, §15, §16, §17, §18, §19, §20

Tlp3^LBD D169A [6] = target: T3, Tlp3^LBD D169A (Campylobacter jejuni, UniProt Q0P864, D169A); details: compared to WT Tlp3^LBD, P < 0.05
Tlp3^LBD K149A [7] = target: T4, Tlp3^LBD K149A (Campylobacter jejuni, UniProt Q0P864, K149A); details: compared to WT Tlp3^LBD, P < 0.05
Tlp2 [8] = target: T1, Tlp2; test: biochemical; type: binding; details: read-out: Tlp2 Affinity
Procedure: (§21) His-tagged proteins (Tlp2, -3, and -4) were prepared as previously described ([11]) DNA segments encoding the periplasmic sensory domains (33 to 286 amino acids) of Tlp2 and (38 to 297 amino acids) of Tlp4 were amplified (see Table S7), ligated into pGEM-T Easy (Promega) and subcloned into pET-19b (Novagen) (see Table S6). Recombinant proteins were expressed in E. coli BL21(DE3) using 1 mM IPTG (isopropyl-β-D-thiogalactopyranoside) and purified using His-select-nickel chromatography as described previously ([8], [11]). The purity of the proteins was confirmed by SDS-PAGE and Western blot analysis with anti-His antibodies (Bio-Rad). Protein concentrations were determined using a NanoDrop spectrophotometer (Thermo Fisher).
(§22) Surface plasmon resonance (SPR) experiments were performed as described previously ([10], [11]) with the following modifications. Briefly, purified proteins were diluted to 0.15 μM in sodium acetate (pH 4.0) and immobilized onto an active flow cell of a CM5 sensor chip with a flow rate of 5 μL/min for 7 min of contact time using a standard amine coupling protocol. Immobilized protein levels for all three proteins ranged from 6028.3 to 9779.3 response units (RU) providing a minimum expected response maximum (RMax) between 20 and 50 RU for the small molecules tested. […] All ligands were prepared in PBS (pH 7.2) and serially diluted from 0.2 to 0.0125 mM. A 10-min dissociation period was allocated after the introduction of each analyte. SPR experiments were performed in single-cycle kinetics mode using the BIAcore S200 biosensor system (Cytiva) at 25°C in PBS (pH 7.2) at a flow rate of 30 μL/min. The equilibrium dissociation constant (KD) for each analyte was determined using BIAcore S200 Evaluation software with a report point 4 s after the injection stop to account for the bulk transfer of the small molecule against a large amount of immobilized protein (as shown in Fig. S5).

Tlp4 [9] = target: T2, Tlp4; test: biochemical; type: binding; details: read-out: Tlp4 Affinity
Procedure: as §21, §22

Tlp3 [10] = target: T5, Tlp3 (Campylobacter jejuni, UniProt Q0P864); test: Glycan/small molecule arrays with Tlp3; details: yes/no binding
Procedure: as §3, §4, §5, §6, §7, §8, §9, §10, §11, §12, §13, §14, §15, §16, §17, §18, §19, §20

Tlp3^LBD K149A [11] = target: T4, Tlp3^LBD K149A; test: biochemical
Tlp3^LBD D169A [12] = target: T3, Tlp3^LBD D169A; test: biochemical
Tlp3^LBD D170A = Tlp3^LBD D170A (Campylobacter jejuni, UniProt Q0P864); test: biochemical
Tlp3^LBD W151A [13] = target: T6, Tlp3^LBD W151A (Campylobacter jejuni, UniProt Q0P864, W151A); test: biochemical
Tlp3^LBD W151A [14] = target: T6, Tlp3^LBD W151A; details: compared to WT Tlp3^LBD, P < 0.05
Tlp3 [15] = target: T5, Tlp3; test: biochemical; type: binding
Procedure: as §21, with “The purity of the proteins was confirmed by SDS-PAGE and Western blot analysis with anti-His antibodies (Bio-Rad).” left out
Surface plasmon resonance (SPR) experiments were performed as described previously ([10], [11]) with the following modifications. […] All ligands were prepared in PBS (pH 7.2) and serially diluted from 0.2 to 0.0125 mM. A 10-min dissociation period was allocated after the introduction of each analyte. SPR experiments were performed in single-cycle kinetics mode using the BIAcore S200 biosensor system (Cytiva) at 25°C in PBS (pH 7.2) at a flow rate of 30 μL/min. The equilibrium dissociation constant (KD) for each analyte was determined using BIAcore S200 Evaluation software with a report point 4 s after the injection stop to account for the bulk transfer of the small molecule against a large amount of immobilized protein (as shown in Fig. S5).

Tlp3^LBD D196A = Tlp3^LBD D196A (Campylobacter jejuni, UniProt Q0P864, D196A); test: biochemical
[16] = SPR KD, mean ± SD, NB = no binding

T1 sequence (Q0PBZ3 entry or part of it): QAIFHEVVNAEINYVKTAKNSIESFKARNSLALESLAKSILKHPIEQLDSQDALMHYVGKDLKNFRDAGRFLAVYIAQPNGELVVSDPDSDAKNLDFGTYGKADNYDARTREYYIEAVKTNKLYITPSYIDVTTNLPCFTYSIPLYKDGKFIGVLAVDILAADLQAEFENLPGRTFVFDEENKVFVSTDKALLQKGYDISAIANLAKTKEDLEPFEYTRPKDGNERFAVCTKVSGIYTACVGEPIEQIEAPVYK
T2 sequence (Q0PBP3 entry or part of it): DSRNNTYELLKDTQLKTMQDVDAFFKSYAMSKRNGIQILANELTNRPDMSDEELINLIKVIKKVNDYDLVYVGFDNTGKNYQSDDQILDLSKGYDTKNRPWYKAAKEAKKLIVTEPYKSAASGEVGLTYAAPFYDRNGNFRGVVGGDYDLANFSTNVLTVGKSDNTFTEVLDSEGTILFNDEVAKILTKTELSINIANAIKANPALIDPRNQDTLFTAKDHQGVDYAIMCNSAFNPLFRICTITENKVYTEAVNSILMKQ
T4 sequence (Q0P864 41-290 K149A): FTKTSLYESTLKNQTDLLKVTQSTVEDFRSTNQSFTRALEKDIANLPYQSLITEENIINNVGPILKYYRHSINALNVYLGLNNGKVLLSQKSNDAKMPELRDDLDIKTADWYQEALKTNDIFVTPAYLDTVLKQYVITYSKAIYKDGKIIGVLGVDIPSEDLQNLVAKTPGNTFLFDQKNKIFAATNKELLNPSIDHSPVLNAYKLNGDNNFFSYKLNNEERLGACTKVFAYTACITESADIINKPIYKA
T3 sequence (Q0P864 41-290 D169A): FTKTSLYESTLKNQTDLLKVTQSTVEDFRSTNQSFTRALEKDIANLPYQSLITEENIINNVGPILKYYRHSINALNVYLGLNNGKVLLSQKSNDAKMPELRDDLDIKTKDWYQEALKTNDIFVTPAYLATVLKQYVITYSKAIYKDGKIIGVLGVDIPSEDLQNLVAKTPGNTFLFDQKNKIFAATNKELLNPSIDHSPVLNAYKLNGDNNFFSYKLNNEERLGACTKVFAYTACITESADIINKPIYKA
T6 sequence (Q0P864 41-290 W151A): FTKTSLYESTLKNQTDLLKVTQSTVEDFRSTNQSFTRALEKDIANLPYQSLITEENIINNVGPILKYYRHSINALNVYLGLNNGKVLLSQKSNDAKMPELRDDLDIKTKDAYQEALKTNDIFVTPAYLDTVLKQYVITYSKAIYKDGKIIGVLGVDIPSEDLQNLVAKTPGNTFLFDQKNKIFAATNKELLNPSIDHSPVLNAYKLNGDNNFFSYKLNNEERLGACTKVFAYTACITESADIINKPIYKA
T5 sequence (Q0P864 entry or part of it): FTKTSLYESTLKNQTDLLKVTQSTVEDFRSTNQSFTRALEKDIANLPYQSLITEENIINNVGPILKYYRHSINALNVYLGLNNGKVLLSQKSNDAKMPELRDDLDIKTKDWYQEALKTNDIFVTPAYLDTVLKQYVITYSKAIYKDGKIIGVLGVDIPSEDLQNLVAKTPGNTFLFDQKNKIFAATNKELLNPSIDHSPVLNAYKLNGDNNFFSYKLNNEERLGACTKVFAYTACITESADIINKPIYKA
Sequence of Tlp3^LBD D170A (Q0P864 41-290 T170A): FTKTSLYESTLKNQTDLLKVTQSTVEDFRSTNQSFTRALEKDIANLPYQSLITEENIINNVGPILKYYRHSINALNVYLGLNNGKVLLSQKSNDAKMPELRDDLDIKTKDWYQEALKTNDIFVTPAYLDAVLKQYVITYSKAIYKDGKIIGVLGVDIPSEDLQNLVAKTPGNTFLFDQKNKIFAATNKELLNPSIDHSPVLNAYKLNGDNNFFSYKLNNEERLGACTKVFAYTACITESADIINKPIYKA
Sequence of Tlp3^LBD D196A (Q0P864 41-290 D196A): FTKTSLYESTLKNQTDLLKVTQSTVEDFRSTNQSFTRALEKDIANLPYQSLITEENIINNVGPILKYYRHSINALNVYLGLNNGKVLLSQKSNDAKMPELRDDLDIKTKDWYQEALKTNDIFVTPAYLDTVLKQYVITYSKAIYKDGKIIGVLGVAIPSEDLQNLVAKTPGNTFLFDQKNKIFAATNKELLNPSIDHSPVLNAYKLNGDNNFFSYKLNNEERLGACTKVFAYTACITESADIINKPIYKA

OC[C@H]1OC(O)[C@@H](O)[C@@H](O)[C@@H]1O (stereo partly drawn) [Mannose]
Tlp3 CR (chemoresponse) (Tlp3 [1]; chemotaxis of mutant compared to WT strain): R
chemotactic response via Tlp3 (Tlp3 [1]; nutrient-depleted chemotaxis assay): repellents
chemotactic response via Tlp4 (Tlp4 [2]): attractants
chemotactic response via Tlp2 (Tlp2 [3]): attractants
binding to Tlp2 on glycan/small molecule array (Tlp2 [4]): interacted
binding to Tlp4 on glycan/small molecule array (Tlp4 [5]): interacted
reduction in the affinity of Tlp3^LBD, substitution D169A (Tlp3^LBD D169A [6]): 2 fold
reduction in the affinity of Tlp3^LBD, substitution K149A (Tlp3^LBD K149A [7]): 2 fold
Kd (Tlp2 [8]; [16]): 12.9 ± 1.8 µM
Kd (Tlp4 [9]; [16]): 7.8 ± 1 µM
binding to Tlp3 on glycan/small molecule array (Tlp3 [10]): interacted

Cc1ncc(C[n+]2csc(CCO)c2C)c(N)n1 [Thiamine]
Kd (Tlp3^LBD K149A [11]): 53.8 ± 6.6 µM
Kd (Tlp3^LBD D169A [12]): 62 ± 8.5 µM
Tlp3 CR (chemoresponse) (Tlp3 [1]): R
Kd (Tlp3^LBD D170A): 30.6 ± 7.2 µM
Kd (Tlp3^LBD W151A [13]): 73.3 ± 4.4 µM
reduction in the affinity/binding of Tlp3^LBD, substitution W151A (Tlp3^LBD W151A [14]): 1 fold
Kd (Tlp3 [15]): 41.4 ± 5.9 µM
Kd (Tlp3^LBD D196A): 36.8 ± 10 µM
Kd (Tlp2 [8]): > 200 µM
Kd (Tlp4 [9]): > 200 µM

Source: paper PMC9769880, “Diverse Sensory Repertoire of Paralogous Chemoreceptors Tlp2, Tlp3, and Tlp4 in Campylobacter jejuni” (Microbiology Spectrum, 2022)
